The record followed here is publication PMC9225715, “Development of PD3 and PD3-B for PDEδ inhibition to modulate KRAS activity” (Journal of Enzyme Inhibition and Medicinal Chemistry, 2022).

The structures appear in SMILES notation.

The target of series [1] is T1, PDEδ (Homo sapiens, UniProt O43924).
T1 construct: made in house; host or cells: E. coli BL21(DE3)
Nature of the series: FP-based competition binding assay using excess deltarasin. On the procedure: (§1) Figure 3. Binding affinities of PDs measured by fluorescence polarisation. (A) Representative binding curve of PDs (PD3) titrated with PDEδ. The FP value was measured in PBS buffer (pH 7.2) containing 8 concentrations (0, 0.5, 1, 2, 4, 8, 16 and 32 μM) of PDEδ mixed with 0.5 μM PDs. Ex: 440 nm, Em: 526 nm; (B) Kd value and half-life of each compound; (C, D) Kinetic trace of PD3 and PD7 in the competition assay. PD3 was shown as a compound with the longest retention time (slow dissociation), whereas PD7 was shown as a compound with the shortest retention time (fast dissociation). The half-life was obtained by a competition binding assay using excess deltarasin. The optimal concentration of PDEδ for the competition assay was determined using the Kd value and PD concentration (0.5 μM) for making more than 68% of the binding complex. Ex: 430 nm, Em: 520 nm. TEXT PRINTED IN THE PICTURE: (A) PD3: Best-fit values Bmax: 261.7; Best-fit values Kd: 0.4991; Std. Error Bmax: 17.98; Std. […] Error Bmax 17.98 (last digit 8 or 6) and Std. Error Kd 0.1956 (5 and 6 not certain) / Panels C and D: k and half-life are printed without a label of their own; assigned to PD3 and PD7 from the panel legends (PDEδ+PD3+Del, PDEδ+PD7+Del)
To confirm that the PD compound occupies the same farnesylation binding site as deltarasin in PDEδ and to exclude the possibility that the FP signal resulted from non-specific hydrophobic interactions, we carried out a FP-based competition assay. PDs (0.5 µM) were incubated with the purified PDEδ protein for 2 h to ensure complete binding between the compound and the protein. Then, deltarasin was added to replace the PD compound in the prenyl binding pocket of PDEδ, which decreased the FP due to the free rotation of the released PD compound. As shown in Figure 3(B), the reverse correlation between Kd values and half-lives was observed (Figure 3(B) and Table 1). […] The rate constants and half-lives were measured only when the increased concentration of deltarasin produced concentration-independent kinetic parameters, which reflects complete displacement of the binding site with the deltarasin. The kinetic trace was fit to a single exponential decay to generate the dissociation rate constant and half-life. Given that the Kd value is a ratio of koff/kon in a simple bimolecular binding model, the measured half-life and Kd are not always matched due to the contribution from the association rate constant. Figure 3(C) (PD3) and 3 D (PD7) show a representative kinetic trace obtained in the competition assay.
Deltarasin, a well-known PDEδ inhibitor, was purchased from Chemietek (Indianapolis, IN) for the competition assay. Assay buffer and the plate were the same as used in fluorescence polarisation assay. The optimal concentration of PDEδ was determined based on the Kd values and ligand concentration (0.5 µM) to ensure the formation of ligand-protein complex. The mixture of PDEδ and compounds were incubated for 2 h at 4 °C. After adding deltarasin to the mixture, FP was immediately recorded by SpectraMax M5 microplate reader (Molecular Devices, San Jose, CA) with excitation at 430 nm and emission at 520 nm. In SpectraMax M5 microplate reader, single excitation and emission wavelengths need to be used for testing all compounds. Therefore, Ex 430/Em 520 was used for competition binding assay. The selected ex/em wavelengths have only a difference of less than 10 nm from the maximum wavelengths, and there was no critical issue for conducting assay. The kinetic trace was fit to a single exponential decay to generate dissociation rate constant and half-life.

For series [2], the target named is T1, PDEδ. Kind of series: Fluorescence polarisation (FP)-based binding assay. As to conditions: 0.5 µM PD titrated with PDEδ, PBS pH 7.2; mean ± SD of three independent experiments; read-out: Kd value. The method, then:
To evaluate the binding affinities of PDs to PDEδ, we also carried out a fluorescence polarisation (FP)-based binding assay after incubation of PDs with PDEδ. […] In the presence of 0.5 µM PD compounds, the polarisation value (mP value) increased following treatment with purified PDEδ in a dose-dependent manner until treatment with excess PDEδ induced saturation of binding. Among the tested compounds, 8 compounds were selected for further evaluation and SAR analysis. The binding curves for the selected 8 compounds are shown with their Kd values in Supplemental Figure S3.
as §1
PDEδ was diluted to make a series of two-fold dilutions with a starting concentration of 32 µM. The diluted solution was mixed with PBS buffer [137 mM NaCl, 2.7 mM KCl, 10 mM Na2HPO4, 2 mM KH2PO4 (pH 7.2)] and then the mixture was loaded on a 96 well black plate (SPL life Science, Gyeonggi-do, Republic of Korea). Compounds were transferred to the wells of assay plate and the final concentration of compounds was fixed to 0.5 µM. After the addition of the compound, the assay plates were incubated for 2 h at 4 °C. FP values were detected by SpectraMax M5 microplate reader (Molecular Devices, San Jose, CA) at the maximum absorption and emission wavelengths of PD compounds in assay buffer. Kd values were determined by previously reported method.

Series [3] concerns the target T1, PDEδ. Nature of the series: Fluorescence measurement after incubation with recombinant PDEδ. The conditions noted are these: 2 µM PD + 2 µM PDEδ, 20 mM Tris buffer pH 7.5, Ex 280 nm. The series is classed as binding. The method, then: With the structural rationale for the binding to PDEδ from the molecular docking studies, we measured the fluorescence responses of the PDs after incubation with recombinant PDEδ proteins to confirm the binding of PDs to PDEδ. We envisioned that the hydrophobic environment of the prenyl binding pocket of PDEδ, as depicted in Figure 1(C), could enhance the fluorescent signal due to the solvatochromic characteristics of IQ scaffold. In addition, tryptophan residues near the binding site of PDEδ and the fluorophore of PDs could act as a fluorescence resonance energy transfer (FRET) pair. […] All recoded spectra of PDs are depicted in Supplemental Figure S1. To compare the binding abilities of PD derivatives to the target protein, same concentration (2 µM) of PD compound was treated and then fluorescence intensity was measured in Spectrofluorometer FP-6500.
The fluorescence changes were measured to determine the interaction between PD compounds and PDEδ protein. The fluorescence spectra were obtained under Tris buffer [20 mM Tris-HCl (pH 7.5), 100 mM NaCl] at 20 °C. The concentration of PDEδ was 2 µM. After the addition of 2 µM PD compound, the mixture was gently inverted 3 times and then incubated for 1 min. The emission spectra were recorded on Spectrofluorometer FP-6500 (JASCO, Tokyo, Japan) at Ex 280 nm. The band width was 3 nm for excitation and 5 nm for emission.

The next series concerns PANC-1 cells. Nature of the series: Immunofluorescence staining of RAS localisation. The series is classed as cell-based, human. As to conditions: 18 h, anti-pan RAS antibody, PD3 10 µM, deltarasin 2, 5, 10 µM. The source says: Finally, we investigated whether PD3 changes KRAS localisation by inhibiting the interaction of KRAS with PDEδ in human pancreatic cancer cells. PDEδ binds the farnesylated RAS proteins and stabilises them[19]. Therefore, PDEδ activity leads to the accumulation of RAS at the plasma membrane (PM); conversely, downmodulation of PDEδ enhances RAS diffusion in the cytoplasm. To confirm the effect of PD3 on the relocalization of RAS, we carried out immunofluorescence staining of PANC-1 cells with an anti-RAS antibody (Figure 6). […] Conversely, in the DMSO-treated control group, RAS was mainly localised in the PM of PANC-1 cells. […] It is supposed that PD3 can induce changes in RAS localisation from the plasma membrane by interrupting the protein–protein interaction of KRAS-PDEδ.
Figure 6. Immunofluorescence of PANC-1 cells with an anti-Pan-RAS antibody (red). DMSO was used as a negative control, and deltarasin was used as a positive control. Ex: 633 nm, Em: ≥638 nm. The scale bar represents 20 µm.
PANC-1 cells were seeded with cover slip in a 6-well cell culture plate (SPL life Science, Gyeonggi-do, Republic of Korea) and incubated for 24 h under 37 °C and 5% CO2 prior to the experiment. […] The fluorescence images were detected by confocal microscope (TCS-SP8 confocal laser scanning microscope, Leica, Germany). Fluorescence signal was obtained by excitation at 633 nm and emission at ≥638 nm.

[4] abbreviates: retention in PDEδ on displacement by excess deltarasin, 0.5 µM PD, mean ± SD of three independent experiments.

As to `COc1ccc(-c2nc3ccccc3c3cc4ccccn4c23)cc1OC` [PD6], the Half-life at PDEδ [1] (setting [4]) stood at 19 ± 3 min. Further, at PDEδ [2], the equilibrium dissociation constant (Kd) amounted to 1.28 ± 0.261 µM. In addition, the “Fluorescence response upon incubation with PDEδ” value at PDEδ [3] was “exceeded the maximum detection limit of Spectrofluorometer”.
`c1csc(-c2nc3ccccc3c3cc4ccccn4c23)c1` [PD25]: on PDEδ [1] (setting [4]), the Half-life was found to be 26 ± 3 min. Besides, at PDEδ [2], the equilibrium dissociation constant (Kd) is 0.425 ± 0.075 µM.
In the case of `c1ccc(Cn2c(-c3ccc(OC[C@H](C4CCNCC4)n4c(-c5ccccc5)nc5ccccc54)cc3)nc3ccccc32)cc1` [deltarasin, reference compound], the “RAS localisation at the plasma membrane (PM)” value with PANC-1 cells is listed as “reduced the amount of RAS at the PM”.
Molecule `COc1ccc(-c2nc3ccccc3c3cc4ccccn4c23)cc1` [PD5] gave a Half-life on PDEδ [1] (setting [4]) of 20 ± 4 min. Further, the Kd on PDEδ [2] amounted to 0.72 ± 0.085 µM.
`c1ccc2c(-c3nc4ccccc4c4cc5ccccn5c34)cccc2c1` [PD7]: the Half-life at PDEδ [1] (representative kinetic trace, single exponential decay) is recorded as 13 min; on PDEδ [1] (setting [4]), 14 ± 1 min. The koff at PDEδ [1] (representative kinetic trace, single exponential decay, read-out: dissociation rate constant k (converted)) is 0.0009 s⁻¹. Besides, the Kd at PDEδ [2] is 1.54 ± 0.18 µM.
At PDEδ [1] (setting [4]), `c1ccc2cc(-c3nc4ccccc4c4cc5ccccn5c34)ccc2c1` [PD8] registered a Half-life of 35 ± 7 min. Besides, the dissociation constant (Kd) at PDEδ [2] is 0.643 ± 0.128 µM.
The matching figures for `c1ccc(-c2nc3ccccc3c3cc4ccccn4c23)cc1` [PD4]: 31 ± 9 min and 0.505 ± 0.033 µM.
The molecule `Brc1ccc(-c2nc3ccccc3c3cc4ccccn4c23)cc1` [PD1] came in with a Half-life on PDEδ [1] (setting [4]) of 36 ± 2 min. Further, on PDEδ [2], the Kd is 0.284 ± 0.14 µM.
